Measurements taken from patent US6682718B1, “Remedies for periodontosis” (Yamanouchi Pharmaceutical Co., Ltd., priority 1999, dated 2004).
“Also recorded” adds a separate entry of the source. Where two headings read alike, the source gives them in different places.

Key:
[1] = tested on: monkey periodontitis model; conditions: oral administration; cited from earlier work
dog periodontitis model = conditions: oral administration; cited from earlier work
[2] = tested on: hamster periodontitis model; conditions: subcutaneous administration; cited from earlier work
[3] = tested on: lamina propria mucosae of the administered sites; test: Local irritation to the lamina propria mucosae of the administered sites (Comparative Example 1); assay type: in vivo, beagle dog
Description: (§1) Using 26 animals of beagle dog (3 to 6 years, body weight at the time of grouping 6.1 to 12.9 kg), topical administration study in a canine periodontitis model were carried out on a), control group: physiological saline, b) incadronate […] group and c) incadronate 150 μg/site group.

[4] = Intra-alveolar bone and intra-rib drug concentration, canine periodontitis model (Example 1); conditions: for Intra-rib drug concentration: 13 weeks after final administration; for concentration at 13 weeks after final administration: female, beagle, dog, other: alveolar mucosa injection
From the text: A total of 30 animals of female beagle dogs (1 to 2 years, body weight at the time of grouping 7.9 to 13.7 kg) were fed with a soft diet prepared by impregnating Gains Packen (AGF) with water from the previous day of ligation and used in this study. Under anesthesia with xylazine hydrochloride (Bayer) and pentobarbital, gingiva between second premolar (hereinafter, P2)/third premolar (hereinafter, P3), between P3/fourth premolar (hereinafter, P4) and between P4/first molar (hereinafter, M1) of right and left mandibles were incised with a surgical knife, and periodontal pockets were prepared around P3 and P4 using a periosteal elevator. An experimental periodontitis was induced by placing double-ligation of silk threads (surgical thread; Nescosuture (3-0), Morita) around the cervices of P3 and P4. In this case, reference points were prepared on the buccal side and lingual side of the crown of P4 at the height of gingival margin using dental drill. […] 1) Control group: physiological saline, 2) incadronate […] group, 3) incadronate 1.5 μg/site group, 4) incadronate 5.0 μg/site group and 5) incadronate 15 μg/site group.
The administration was started just after the surgical operation in each group. Incadronate (an injection, mfd. by Yamanouchi Pharmaceutical Co., Ltd.) was prepared and diluted with saline such that the administration liquid volume became 150 μl/site. The administration was carried out a total of three times, namely just after the ligation and 1 and 2 weeks after the ligation. The administration was carried out by the alveolar mucosa injection method using a 27 G injection needle attached to a glass micro-syringe. The injection needle was inserted horizontally to the alveolar mucosa close to the boundary between the alveolar mucosa and gingiva (muco-gingival junction) around the ligated tooth, and 150 μl of a drug solution was injected between periosteum of the alveolar bone and alveolar mucosa. The administration was carried out on both of the buccal and lingual side (a total of 4 sites per 1 mandible, 600 μl in total). Each animal was sacrificed by exsanguination 13 weeks after the final administration, and the mandibles including P3 and P4 of right and left side and the ribs were harvested and submitted to the intra-bone drug concentration measurement.
Root of the left fourth premolar was extracted using cutting pliers, the whole mandible containing jaw bone and alveolar bone was divided up and down into two, and the upper ½ was considered as the alveolar bone. […] Incadronate was extracted from these samples using a calcium precipitation method and its intra-bone drug concentration was measured by an HPLC method.

[5] = Alveolar bone drug concentration in rat tooth movement model; assay type: in vivo; conditions: 10 μg/50 μl/kg group
[6] = tested on: experimental periodontitis induced by silk thread ligation of P3 and P4; test: Canine periodontitis model study, topical alveolar mucosa injection (Example 1): alveolar bone loss and clinical scores; assay type: in vivo, beagle dogs
From the text: The standardized X-ray photographing method (J. Periodontol., 33, 164-171 (1962)) was employed, in which irradiation direction of X-ray to a subject and position of the film are always kept constant so that X-ray photographs of the same region of the same individual can be obtained repeatedly always under the same conditions. This time, in order to evaluate alveolar bone loss around P3 and P4 of right and left mandibles, a cap was formed between incisor tooth and M1 of both mandibles using an acrylic resin, and a fixing device was prepared by combining this cap with a film holder.
Each animal was anesthetized with xylazine hydrochloride and ketamine hydrochloride (Ketalar, Sankyo), and a dental film (Ultra Speed DF58, Kodak) was attached to the film holder on the fixing device to photograph X-ray by a dental X-ray photographing apparatus (Super Max 70, type HD-1, Morita Seisakusho).
That is, an X-ray film was measured under a stereoscopic microscope (objective×1, eyepiece×10), an OHP sheet was put on the X-ray film, and line a, line b and line c were marked on the OHP sheet using a ceramic knife, thereby obtaining respective two points b and b′ and c and c′ on line b and line c. Distances between the b-b′ and c-c′ were respectively defined as the distances from the reference points (b and c points) to the alveolar bone crest. The length of alveolar bone loss was expressed by averaging values obtained by subtracting the sum of b-b′ and c-c′ distances in each individual at the time of each week from the sum of b-b′ and c-c′ distances at the time of ligation.
Measurement of the depth of periodontal pockets was carried out by a four point measuring method in accordance with J. Clin. Periodontol., 4, 173-190 (1997)).
Regarding the length of gingival recession, the distance from the reference point on the tooth crown prepared at the time of ligation to the gingival margin was measured on two regions, the buccal and lingual side, of P4 at the time of each week in each individual, and expressed as the average value.
Attachment level is an index for measuring position of the bottom of gingival sulcus (pocket bottom), and was expressed as the distance from the pocket bottom to the reference point on the tooth crown. That is, a value of the depth of pocket plus the length of gingival recession was used as the attachment level.
Regions of inflammation and degree of the symptoms of gingiva were evaluated in accordance with J. Periodontol., 38, 602-610 (1967)).

[7] = Alveolar bone drug concentration after oral administration in canine periodontitis model; assay type: in vivo; conditions: dog, oral 1.0 mg/kg, at completion of 26 weeks administration
Description: Thereafter, it was confirmed that the drug concentration in the alveolar bone is about 4 μg/g in that case.
Intra-alveolar bone concentration of incadronate was 5.67 and 4.28 μg/g bone. This was similar to the intra-alveolar bone drug concentration of about 4 μg/g at the time of the completion of 26 weeks oral administration of 1.0 mg/kg of incadronate (J. Periodont. Res., 33, 196-204 (1998)).

[8] = Intra-alveolar bone drug concentration, high dose topical study (Comparative Example 1); assay type: in vivo; conditions: beagle, dog, read-out: Intra-alveolar bone concentration of incadronate
Description: as §1

[9] = tested on: tooth movement model (tooth relapse); test: Tooth movement model in rat, intra-gingival administration
[10] = tested on: canine periodontitis model; conditions: oral administration; cited from earlier work
[11] = tested on: experimental periodontitis (canine periodontitis model); test: High dose topical administration study in canine periodontitis model (Comparative Example 1): alveolar bone loss and clinical scores; assay type: in vivo, beagle dog; conditions: 50 and 150 μg/site groups vs control, 3 topical injections
Description: as §1

[12] = tested on: rat molar experimental tooth movement models; conditions: cited from earlier work

NCCCC(O)(P(=O)(O)O)P(=O)(O)O [alendronate]
alveolar bone destruction [1]: inhibited alveolar bone destruction
alveolar bone destruction (dog periodontitis model): inhibited alveolar bone destruction

O.O=P([O-])([O-])C(NC1CCCCCC1)P(=O)(O)O.[Na+].[Na+] [incadronate, disodium cycloheptylaminomethylenediphosphonate monohydrate]
alveolar bone loss [2]: alveolar bone loss inhibitory action
local irritation to the lamina propria mucosae of the administered sites ([3]; 50 μg/site group): slight mononuclear cell infiltration was also observed partly
local irritation to the lamina propria mucosae of the administered sites ([3]; 150 μg/site group, one week after the final administration, monohydrate): considerable local irritation was observed; also recorded: bleeding, fibrin precipitation, inflammatory cell infiltration, salivary gland and muscular tissue damage were observed in all cases
intra-rib concentration as fraction of the intra-alveolar bone concentration ([4]; 5 to 15 μg/site-administered groups): 1/10
Intra-rib drug concentration ([4]; dose 0.5 μg/site): N.D. (N.D. indicates detection limit (0.025 μg/g) or less)
Intra-rib drug concentration ([4]; dose 1.5 μg/site): N.D. (N.D. indicates detection limit (0.025 μg/g) or less)
concentration at 13 weeks after final administration ([4]; alveolar bone, 0.5 μg/site): 58 ± 8 ng/g
concentration at 13 weeks after final administration ([4]; alveolar bone, 1.5 μg/site): 174 ± 11 ng/g
concentration at 13 weeks after final administration ([4]; alveolar bone, 5 μg/site): 356 ± 70 ng/g
concentration at 13 weeks after final administration ([4]; alveolar bone, 15 μg/site): 1040 ± 313 ng/g
concentration at 13 weeks after final administration ([4]; rib (epiphyseal region), 5 μg/site): 33 ± 3 ng/g
concentration at 13 weeks after final administration ([4]; rib (epiphyseal region), 15 μg/site): 91 ± 16 ng/g
average concentration in the alveolar bone [5]: 0.6 µg/g
acceleration of pocket depth ([6]; 2 and 4 weeks after the ligation, dose of 1.5 μg/site or more): significantly inhibited
exacerbation of gingival index ([6]; after 2 weeks of the ligation, dose of 1.5 μg/site or more): significantly inhibited
reduction of attachment level ([6]; after 4 and 15 weeks of the ligation, dose of 1.5): significantly inhibited
dose at which alveolar bone loss inhibitory action was most potent ([6]; doses 0.5, 1.5, 5.0, 15 μg/site tested): 5 μg/site
reduction of attachment level ([6]; in and after 2 weeks of the ligation, dose of 5 or more): significantly inhibited
acceleration of gingival recession ([6]; in and after 4 weeks of the ligation, dose of 5 or more): significantly inhibited
aggravation of the clinical scores of periodontitis ([6]; incadronate-treated groups): inhibited
alveolar bone loss (standardized X-ray) ([6]; incadronate-treated groups 0.5-15 μg/site vs control, after ligation): inhibited
acceleration of gingival recession ([6]; only after 15 weeks of the ligation, dose of 1.5): significantly inhibited
concentration at 26 weeks [7]: ~4000 ng/g
concentration at 8 weeks after final administration ([8]; 50 μg/site group (first value)): 5670 ng/g
concentration at 8 weeks after final administration ([8]; 150 μg/site group): 4280 ng/g
effect on tooth relapse ([9]; 10 μg/50 μl/kg intra-gingival (200 μg/ml)): no effect
effect on tooth relapse ([9]; 100 μg/50 μl/kg intra-gingival (2,000 μg/ml)): good tooth relapse inhibitory action
local irritation in gross observation ([9]; 10 or 100 μg/50 μl/kg intra-gingival): not observed
alveolar bone loss and attachment level [10]: alveolar bone loss inhibitory and attachment level improving actions
alveolar bone resorption inhibitory action [10]: shows an alveolar bone resorption inhibitory action dose-dependently
suitable dose [10]: 1.0 mg/kg
clinical scores [11]: no significant difference
alveolar bone loss inhibitory action ([11]; monohydrate): unable to exert alveolar bone resorption inhibitory action; also recorded: no significant difference

NCCC(O)(P(=O)(O)O)P(=O)(O)O [pamidronate]
effect on experimental tooth movement ([12]; topical administration to sub-mucasa on palate-side): effective

O=P(O)(O)C(O)(Cc1cccnc1)P(=O)(O)O [risedronate]
effect on experimental tooth movement ([12]; topical administration to the sub-periosteum area adjacent to the first molar): effective
